From the NIST ThermoML archive (doi:10.1016/j.jct.2011.10.028)
± gives the expanded uncertainty stated by the source.

Columns and labels:
[1] = relative permittivity at zero frequency (dimensionless); details: 300.15 K; 101.33 kPa; Liquid; impedance analyzer
[2] = 300.15 K; 101.33 kPa; Liquid; Pycnometric method
[3] = refractive index (Na D-line) (dimensionless); details: 300.15 K; 101.33 kPa; Liquid; Standard Abbe refractometry

| relative permittivity at zero frequency [1] | mass density [2] [kg/m3] | refractive index [3] | Compound |
| --- | --- | --- | --- |
| 20.678 ± 0.001 | 798.5 ± 0.4 | 1.391 ± 0.001 | CCCO [propan-1-ol] |
| 18.562 ± 0.001 | 779.2 ± 0.4 | 1.383 ± 0.001 | CC(C)O [propan-2-ol] |

| Compound | relative permittivity at zero frequency [1] | mass density [2] [kg/m3] | refractive index [3] |
| --- | --- | --- | --- |
| CNc1ccccc1 [N-methylaniline] | 5.878 ± 0.001 | 979.8 ± 0.6 | 1.566 ± 0.001 |
